We go through four compounds from patent US20100068297A1, “Antimicrobial Composition” (NATURE THERAPEUTICS LIMITED, priority 2006, published 2010).

For assay [1], the system named is E. coli. Briefly: Suspension assay, 30 minutes exposure, viable count. Type of assay: cell-based. The conditions noted are these: no Vitamin C. The method, then: All reagents were purchased from Sigma-Aldrich (Poole, Dorset) and distilled water was used throughout. Overnight cultures on nutrient agar were then suspended in Ringer's solution (Oxoid, U.K.) to a turbidity equivalent to 0.5 McFarland (1.5×10^8 CFU/ml). […] The final solution was protected from light (Stewart et al. 1998. J. Appl Microbiol 84:777-783). The appropriate bacterial dilution was prepared and 50 μl placed in a sterile Eppendorf micro-centrifuge tube with a 100 μl of the extract/metal salt solution. […] Serial dilutions were prepared in Ringer's solution (10^−5), 10 μl of each dilution is spotted on nutrient agar plate and incubated for 24 hours at 37° C. Each assay was conducted in triplicate. The assay was carried out as described above with the following addition: […]

Assay [2] relates to PVL positive cMRSA. The experiment in a line: Suspension test, 2 hours, clinical isolates. Type of assay: cell-based, Staphylococcus aureus. The conditions noted are these: 2 hours exposure, 10 clinical isolates.
Experimental: Clinical isolates of methicillin resistant (n=10), methicillin sensitive (n=10) Staphylococcus aureus (MRSA and MSSA) and Panton-Valentine Leukocidin producing cMRSA (n=10) were used in the study. The MRSA and MSSA isolates were collected from the Royal Marsden Hospital (London, UK) and the cMRSA isolates were collected from the Devon and Exeter Hospital (UK). The isolates were cultured over night on nutrient agar (Oxoid), aerobically at 37° C. and then frozen in cyrovials (Pro-labs) at −80° C. until required. Prior to use all isolates were passaged twice on nutrient agar aerobically at 37° C. In all assays culture were prepared by using overnight cultures on nutrient agar that were then suspended in Ringer's solution (Pro-Lab, U.K.) to a turbidity equivalent to 0.5 McFarland (1.5×10^8 cfu ml^−1).
Briefly, overnight cultures on nutrient agar were then suspended in Ringer's solution (Oxoid, U.K.) to a turbidity equivalent to 0.5 McFarland (1.5×10^8 CFU/ml).
The appropriate bacterial dilution was prepared and 50 μL it placed in a sterile Eppendorf micro-centrifuge tube with a 100 μL of the extract/metal salt solution. Following treatment of the bacteria for 2 hours at room temperature, the activity of the bactericidal agent was neutralized by adding an equal volume of 2% (v/v) Tween-80 (Sigma Chemical Co., UK) in Lambda buffer. […]
Assay [3] relates to MRSA. Briefly: Micro-dilution MIC, alone and in combination. Type of assay: cell-based, Staphylococcus aureus. The conditions noted are these: each table line is a group of isolates; 24 h. The method, then: The plates were prepared as follows, 50 μl of four-times strength Iso-Sensitest broth was added to the first row of wells and 50 μl of double strength Iso-Sensitest broth was added to all remaining wells. To the first row of wells 50 μl of the PRE was added and mixed, 50 μl of broth from row A was transferred to row B and mixed, this process was continued to row E Finally, 50 μl of broth was removed from well F and discarded. Then the overnight cultures were suspended in Ringers solution to a turbidly of 0.5 McFarland (1.5×10^8 cfu/ml). 50 μl of suspension were added to well A (final concentration of PRE in well A=200 mg/ml) through to G All samples were carried out in Triplicate. All plates were incubated at 37° C. for 24 hours. After incubation 10 μl of broth from each well was spotted onto nutrient agar and incubated at 37° C. for 24 hours. After incubation the plates were examined to determine breakpoints by the presence or absence of growth.
Background: Dilution methods test growth across graded concentrations, often in twofold steps.

The test system of assay [4] is ESβL Pseudomonas aeruginosa clinical isolates. Briefly: Suspension test, aqueous preparations, 30 minutes. The following applies: no Vitamin C, nine isolates, listed as Cu(II). Type of assay: cell-based.
Experimental: P. aeruginosa isolates were removed from the freezer and first passaged on nutrient agar twice before use. Overnight cultures on nutrient agar were then suspended in Ringer's solution (Oxoid, U.K.) to a turbidity equivalent to 0.5 McFarland (1.5×10^8 CFU/ml).
The appropriate bacterial dilution was prepared and 50 μl placed in a sterile Eppendorf micro-centrifuge tube with a 100 μl of the extract/metal salt solution. After exposure of the bacteria for 30 minutes at room temperature, the activity of the bactericidal agent was neutralized by adding an equal volume of 2% (v/v) Tween-80 (Sigma Chemical Co., UK) in Lambda buffer (Stewart et al. 1998). Serial dilutions were prepared in Ringer's solution (10^−5), 10 μl of each dilution is spotted on nutrient agar plate and incubated for 24 hours at 37° C. Each assay was conducted in triplicate.
The assay was carried out as described above with the following addition: Vitamin C was added to the metal ion solution immediately prior to mixing with the PRE. Aliquots of Vitamin C were made to give final metal ion:Vitamin C ratios (and Vitamin C concentrations) of 1:1 (4.8 mM), 1:5 (24 nM), 1:20 (96 mM) (metal salt:Vitamin C). 700 μl of this solution was then added to PRE.
Assay [5] deals with Staph. aureus. The experiment in a line: Tea extracts with metal salts, suspension assay 30 min. Type of assay: cell-based, Staphylococcus aureus. The following applies: Lambda buffer control. The protocol:
(§1) Tea infusions were prepared as previously with boiling sterilized distilled water. After 10 minutes, the extracts are removed from the beaker into sterilized universal tubes. The pH of these extracts was neutralized using a 1 M NaOH solution. The extracts are refrigerated, used within 4 days and without further treatment. Overnight cultures of the Gram-positive strain (Staph. aureus) and the Gram-negative strains (Ps. aeruginosa and Prot. mirabilis) were suspended in Ringers solution to a turbidity equivalent to 0.5 McFarland (1.5×10^8 CFU/ml). Metal salts were added to the optimum tea extracts immediately before the assay was conducted. […] The appropriate bacterial dilution was prepared and 50 μl of that was placed in a sterile Eppendorf micro-centrifuge tube with a 100 μl of the extract/metal salt solution. […] Serial dilutions were prepared in Ringer's solution, 10 μL aliquots of each dilution were spotted onto nutrient agar plates and incubated aerobically for 24 hours at 37° C. Each assay was conducted in triplicate.

The subject of assay [6] is Prot. mirabilis. The assay is described as above. The conditions noted are these: Lambda buffer control. Type of assay: cell-based, Proteus mirabilis. The method, then:
as §1

For assay [7], the system named is Ps. aeruginosa. Described as above. Type of assay: cell-based, Pseudomonas aeruginosa. The conditions noted are these: Lambda buffer control. The protocol: as §1
Assay [8] deals with Pseudomonas aeruginosa. The experiment in a line: In vitro bactericidal assay, control strain. Type of assay: cell-based. The conditions noted are these: metal ion added to PRE. The protocol:
The control strain was Pseudomonas aeruginosa for standard experimentation, ie determining optimal preparations.
Growth conditions: on nutrient agar provided by Oxoid Ltd for 24 hrs at 37° C.
The inventor established a functional in vitro bactericidal assay to screen a variety of formulations (cream, aqueous and ointment). This assay involved adding 0.5 g of ointment to 10 ml of water and vortexing prior to a standard suspension test using 50 microlitres of bacterial cell suspension to a turbidity of 0.5 McFarland solution (bacterial cell suspension equal to 1.5×10^8) plus 100 microlitres of the ointment solution. After incubation in the dark at room temperature for 30 mins, serial dilutions (from 10^−1 to 10^−5) were carried out on nutrient agar.
In terms of mechanisms of action, the preference for using metal ions in the reduced state led to the incorporation of studies using reductants to stabilize this oxidation state, and prolong and enhance activity. Thus, the reductant Vitamin C was added in three different doses after pre-incubating the PRE/metal ions mixtures for 30 minutes, and the results are shown in FIG. 2.
The longer term activities of the PRE:metal salt(s) mixtures were investigated after a period of 24 and 48 hours, and the results are shown in FIG. 4. […] The results shown are for one system only as an example.

Molecules are shown by their SMILES. “And” between values parts separate entries of the source, which are not always exact repeats. Identical values can stand only once.

With `O=S(=O)([O-])[O-].[Cu+2]` [CuSO4, copper (II) sulfate], the “reduction of surviving population / growth, factor compared to the buffer” value in assay [1] is 10^4. The “isolates in which the 10^3 log reduction in growth was observed” value in assay [2] came out at 60%. Also, in assay [2], the reduction in growth was 10^3 log10. Besides, the “MIC, agent alone” value in assay [3] was 3125 µg/mL and 1563 µg/mL. In addition, in assay [4], the “reduction in growth (mean values)” value is ~10^1 log10 and ~10^2 log10. Moreover, the figures for the “bactericidal efficacy, reduction in CFU/mL (factor)” value (“bactericidal efficacy, reduction” below) in assay [5], in assay [6] and in assay [7] were 10^4, 10^2 and 10^2, respectively. Moreover, the “activity of the metal ion solution upon addition to PRE” value (from here on “activity”) in assay [8] is given as “highest activities”.
As for `O=S(=O)([O-])[O-].[Fe+2]` [FeSO4, iron (II) sulfate], the “bactericidal efficacy, reduction” value in assay [5] was “poor efficacy”; in assay [6], 10^3; in assay [7], 10^3. Further, the “activity” value in assay [8] is “highest activities”.
Regarding `O=S(=O)([O-])[O-].[Mn+2]` [MnSO4], the “bactericidal efficacy, reduction” value is “poor efficacy” in assay [5], “minimal” in assay [6] and “minimal” in assay [7]. For the same compound, in assay [8], the “activity” value is reported as “little or no activity”.
For the compound `O=S(=O)([O-])[O-].[Zn+2]` [ZnSO4], in assay [8], the “activity” value was “little or no activity”.
